PMC11280325, “Design, Synthesis, and Characterization of Novel Thiazolidine-2,4-Dione-Acridine Hybrids as Antitumor Agents” (Molecules, 2024)
Where a name gives a salt, the structure may show the parent alone.

Assays:
[1] = test system: A2058; test: MTT assay, A2058; type: cell-based; settings: human melanoma, 48 h incubation
Description: (§1) The human cancer cell lines HeLa (cervical adenocarcinoma), HCT116 (colorectal adenocarcinoma), A2780 (human ovarian adenocarcinoma), A2780cis (human ovarian adenocarcinoma cisplatin-resistant), Jurkat (acute T-lymphoblastic leukemia), and Hep G2 (hepatocellular carcinoma) were cultured in an RPMI 1640 growth medium (Biosera, Kansas City, MO, USA). The cancer cell lines MDA-MB-231 (triple-negative breast adenocarcinoma), A2058 (human melanoma), U87 (human glioblastoma), PATU 8902 (pancreas adenocarcinoma), and A549 (human lung adenocarcinoma) were cultured in a DMEM medium (Biosera, Kansas City, MO, USA). The media were supplemented with 10% fetal bovine serum (FBS) (Invitrogen, Carlsbad, CA, USA) and 1× HyClone™ Antibiotic/Antimycotic Solution (GE Healthcare, Piscataway, NJ, USA).
(§2) To evaluate the IC50 (half-maximal inhibitory concentration) and confirm the antiproliferative activity of the tested substances, we employed the colorimetric MTT assay (3-(4,5-dimethylthiazol-2-yl)-2,5-diphenyltetrazolium bromide) (Sigma-Aldrich Chemie, Steinheim, Germany). The cell lines were seeded in 96-well plates at a density of 5 × 10^3 to 10 × 10^3 cells per well. After 24 h, the tested substances, dissolved in the cultivation medium, were added to the cells at final concentrations of 5, 10, 20, and 50 µmol/L. The cells were then incubated for 48 h under standard cultivation conditions. Following the incubation period, MTT was added to each well. The MTT was metabolized by the cells into insoluble formazan crystals, which were subsequently dissolved by adding 100 µL of 10% SDS. After another 24 h, the absorbance was measured at a wavelength of 540 nm using the automated Cytation™ 3 Cell Imaging Multi-Mode Reader (Biotek, Winooski, VT, USA). The experiments were performed in at least three independent repetitions. IC50 values were calculated using a nonlinear regression method.

[2] = test system: HCT116; test: MTT assay, HCT116; type: cell-based, human; settings: colorectal adenocarcinoma, 48 h incubation
Description: as §1, §2

[3] = test system: HeLa; test: MTT assay, HeLa; type: cell-based, human; settings: cervical adenocarcinoma, 48 h incubation
Description: as §1, §2

[4] = test system: A2780; test: MTT assay, A2780; type: cell-based, human; settings: ovarian adenocarcinoma, 48 h incubation
Description: as §1, §2

[5] = test system: MCF-10A; test: MTT assay, MCF-10A non-cancerous cells; type: cell-based, human; settings: non-cancerous epithelial breast cells, 48 h incubation
Description: (§3) The non-cancerous cell line MCF-10A (human epithelial breast cells) was cultured in a DMEM F12 medium supplemented with 10% FBS (Invitrogen, Carlsbad, CA, USA), 1× HyClone™ Antibiotic/Antimycotic Solution (GE Healthcare, Piscataway, NJ, USA), insulin, hEGF, and hydrocortisone. The BJ-5ta cells (human dermal fibroblasts) were cultured in a DMEM-M199 4:1 medium mixture, supplemented with 10% FBS and hygromycin B (0.01 mg/mL). The cells were maintained under standard conditions with an atmosphere containing 5% CO2 at 37 °C. Cell viability, estimated by trypan blue exclusion, was consistently greater than 95% before each experiment.
as §2

[6] = test system: PATU; test: MTT assay, PATU 8902; type: cell-based, human; settings: pancreas adenocarcinoma, 48 h incubation
Description: as §1, §2

[7] = test system: Bj-5ta; test: MTT assay, BJ-5ta non-cancerous fibroblasts; type: cell-based, human; settings: non-cancerous dermal fibroblasts, 48 h incubation
Description: as §3, §2

[8] = test system: A549; test: MTT assay, A549; type: cell-based, human; settings: lung adenocarcinoma, 48 h incubation
Description: as §1, §2

[9] = test system: Hep G2; test: MTT assay, Hep G2; type: cell-based, human; settings: hepatocellular carcinoma, 48 h incubation
Description: as §1, §2

Row | Compound | IC50 ([1]; Homo sapiens, A2058, 48 h) [µM] | IC50 [2] [µM] | IC50 ([3]; Homo sapiens, HeLa, 48 h) [µM] | IC50 ([4]; Homo sapiens, A2780, 48 h) [µM] | IC50 ([5]; Homo sapiens, MCF-10A, 48 h) [µM] | IC50 ([6]; Homo sapiens, PaTu 8902, 48 h) [µM] | IC50 ([7]; Homo sapiens, Fibroblast, 48 h) [µM] | IC50 ([8]; Homo sapiens, A549, 48 h) [µM] | melting point [°C] | IC50 ([9]; Homo sapiens, HepG2, 48 h) [µM] | IC50 [4] [µM] | IC50 [5] [µM] | IC50 [1] [µM] | IC50 [3] [µM] | IC50 [6] [µM] | IC50 [7] [µM] | IC50 [8] [µM] | IC50 [9] [µM]
1 | COc1cc(/C=C2\SC(=O)N(Cc3c4ccccc4nc4ccccc34)C2=O)ccc1OCC(=O)Nc1cccc(C(F)(F)F)c1 [Compound 12f, 2-(4-{[(5Z)-3-[(Acridin-9-yl)methyl]-2,4-dioxo-1,3-thiazolidin-5-ylidene]methyl}-2-methoxyphenoxy)-N-[3-(trifluoromethyl)phenyl]acetamide] | > 50 | > 50 | 11.5 ± 3.3 | > 50 | > 50 | > 50 | > 50 | > 50 | 269 to 270 | > 50 | – | – | – | – | – | – | – | –
2 | COc1cc(/C=C2\SC(=O)N(Cc3c4ccccc4nc4ccccc34)C2=O)ccc1OCC(=O)Nc1ccccc1 [Compound 12a, 2-(4-{[(5Z)-3-[(Acridin-9-yl)methyl]-2,4-dioxo-1,3-thiazolidin-5-ylidene]methyl}-2-methoxyphenoxy)-N-phenylacetamide] | > 50 | > 50 | 18.7 ± 0.45 | – | – | > 50 | > 50 | > 50 | 260 to 262 | > 50 | > 50 | > 50 | – | – | – | – | – | –
3 | COc1cc(/C=C2\SC(=O)N(Cc3c4ccccc4nc4ccccc34)C2=O)ccc1OCC(=O)Nc1cc(C(F)(F)F)cc(C(F)(F)F)c1 [12g·2HCl, 2-(4-{[(5Z)-3-[(Acridin-9-yl)methyl]-2,4-dioxo-1,3-thiazolidin-5-ylidene]methyl}-2-methoxyphenoxy)-N-[3,5-bis(trifluoromethyl)phenyl]acetamide dihydrochloride] | – | 26.7 ± 9.01 | – | – | – | – | – | – | – | – | > 50 | > 50 | > 50 | 25.1 ± 6.4 | > 50 | > 50 | > 50 | > 50
4 | O=C(COc1ccc(/C=C2\SC(=O)N(Cc3c4ccccc4nc4ccccc34)C2=O)cc1)Nc1ccc([N+](=O)[O-])cc1 [7d·2HCl, 2-(4-{[(5Z)-3-[(Acridin-9-yl)methyl]-2,4-dioxo-1,3-thiazolidin-5-ylidene]methyl}phenoxy)-N-(4-nitrophenyl)acetamide dihydrochloride] | – | 8.6 ± 2.9 | – | – | – | – | – | – | – | – | > 50 | > 50 | > 50 | 4.55 ± 0.35 | > 50 | > 50 | > 50 | > 50
5 | COc1cc(NC(=O)COc2ccc(/C=C3\SC(=O)N(Cc4c5ccccc5nc5ccccc45)C3=O)cc2OC)cc(OC)c1 [12b·2HCl, 2-(4-{[(5Z)-3-[(Acridin-9-yl)methyl]-2,4-dioxo-1,3-thiazolidin-5-ylidene]methyl}-2-methoxyphenoxy)-N-(3,5-dimethoxyphenyl)acetamide dihydrochloride] | – | 27.3 ± 3.75 | – | – | – | – | – | – | – | – | 15 ± 1.4 | 12.4 ± 1.9 | > 50 | 11.9 ± 7.4 | > 50 | 29.6 ± 4.4 | > 50 | > 50
6 | O=C(COc1ccc(/C=C2\SC(=O)N(Cc3c4ccccc4nc4ccccc34)C2=O)cc1)Nc1ccccc1 [7a·2HCl, 2-(4-{[(5Z)-3-[(Acridin-9-yl)methyl]-2,4-dioxo-1,3-thiazolidin-5-ylidene]methyl}phenoxy)-N-phenylacetamide dihydrochloride] | – | 13.1 ± 2.3 | – | – | – | – | – | – | – | – | > 50 | 17.6 ± 4.3 | > 50 | 17.7 ± 4.04 | > 50 | 29.9 ± 7.2 | 17 ± 1.35 | > 50
7 | COc1cc(NC(=O)COc2ccc(/C=C3\SC(=O)N(Cc4c5ccccc5nc5ccccc45)C3=O)cc2)cc(OC)c1OC [7c·2HCl, 2-(4-{[(5Z)-3-[(Acridin-9-yl)methyl]-2,4-dioxo-1,3-thiazolidin-5-ylidene]methyl}phenoxy)-N-(3,4,5-trimethoxyphenyl)acetamide dihydrochloride] | – | 16.9 ± 1.75 | – | – | – | – | – | – | – | – | > 50 | > 50 | > 50 | 21.4 ± 5.8 | > 50 | > 50 | > 50 | > 50
8 | COc1cc(/C=C2\SC(=O)N(Cc3c4ccccc4nc4ccccc34)C2=O)ccc1OCC(=O)Nc1ccccc1 [Compound 12a·2HCl, 2-(4-{[(5Z)-3-[(Acridin-9-yl)methyl]-2,4-dioxo-1,3-thiazolidin-5-ylidene]methyl}-2-methoxyphenoxy)-N-phenylacetamide dihydrochloride] | – | 6.55 ± 1.65 | – | – | – | – | – | – | – | – | 15 ± 1.35 | 19.3 ± 1.1 | > 50 | 18.2 ± 5.1 | > 50 | 35.5 ± 4.5 | > 50 | > 50
9 | COc1cc(/C=C2\SC(=O)N(Cc3c4ccccc4nc4ccccc34)C2=O)ccc1OCC(=O)Nc1ccccc1C(F)(F)F [12e·2HCl, 2-(4-{[(5Z)-3-[(Acridin-9-yl)methyl]-2,4-dioxo-1,3-thiazolidin-5-ylidene]methyl}-2-methoxyphenoxy)-N-[2-(trifluoromethyl)phenyl]acetamide dihydrochloride] | – | 29.2 ± 3.7 | – | – | – | – | – | – | – | – | > 50 | > 50 | > 50 | 13.2 ± 4.9 | > 50 | > 50 | > 50 | > 50
10 | COc1cc(NC(=O)COc2ccc(/C=C3\SC(=O)N(Cc4c5ccccc5nc5ccccc45)C3=O)cc2)cc(OC)c1 [7b·2HCl, 2-(4-{[(5Z)-3-[(Acridin-9-yl)methyl]-2,4-dioxo-1,3-thiazolidin-5-ylidene]methyl}phenoxy)-N-(3,5-dimethoxyphenyl)acetamide dihydrochloride] | – | 17.4 ± 1.74 | – | – | – | – | – | – | – | – | > 50 | 11.3 ± 2.05 | > 50 | 6.11 ± 1.2 | > 50 | 34.5 ± 5.5 | 21.9 ± 3.35 | > 50
11 | COc1cc(/C=C2\SC(=O)N(Cc3c4ccccc4nc4ccccc34)C2=O)ccc1OCC(=O)Nc1cccc(C(F)(F)F)c1 [12f·2HCl, 2-(4-{[(5Z)-3-[(Acridin-9-yl)methyl]-2,4-dioxo-1,3-thiazolidin-5-ylidene]methyl}-2-methoxyphenoxy)-N-[3-(trifluoromethyl)phenyl]acetamide dihydrochloride] | – | 4.98 ± 2.9 | – | – | – | – | – | – | – | – | > 50 | > 50 | > 50 | 19.4 ± 6.48 | > 50 | > 50 | > 50 | > 50
12 | COc1cc(/C=C2\SC(=O)N(Cc3c4ccccc4nc4ccccc34)C2=O)ccc1OCC(=O)Nc1cc(OC)c(OC)c(OC)c1 [12c·2HCl, 2-(4-{[(5Z)-3-[(Acridin-9-yl)methyl]-2,4-dioxo-1,3-thiazolidin-5-ylidene]methyl}-2-methoxyphenoxy)-N-(3,4,5-trimethoxyphenyl)acetamide dihydrochloride] | – | 5.4 ± 2.4 | – | – | – | – | – | – | – | – | > 50 | > 50 | > 50 | 20.2 ± 5.4 | > 50 | > 50 | > 50 | > 50
